In brackets after ≈: the same amount, converted by molar mass.
Legend:
Experiment in all cases: ≥ marks a high value that may be exact or a test limit, other limits are often not marked, values filed in µg/mL are converted to µM
[1] = tested on: Mannheimia haemolytica 82-25
[2] = tested on: Klebsiella pneumoniae ATCC 10031
Candida krusei ATCC 6258 = tested on: Candida krusei ATCC 6258
[3] = tested on: Pseudomonas aeruginosa ATCC 27312
[4] = tested on: Staphylococcus aureus ATCC 29213
[5] = tested on: Enterococcus faecalis ATCC 29212
[6] = tested on: Escherichia coli ATCC 12795
[7] = tested on: Serratia marcescens ATCC 14756
[8] = tested on: Salmonella enterica subsp. enterica serovar Typhimurium ATCC 14028s
[9] = tested on: Staphylococcus epidermidis C621
[10] = tested on: Pseudomonas aeruginosa Z61
Aeromonas salmonicida = tested on: Aeromonas salmonicida
[11] = tested on: Salmonella enterica serovar typhimurium MS7953s
[12] = tested on: Pseudomonas aeruginosa K799
Vibrio anguillarum = tested on: Vibrio anguillarum
[13] = tested on: Bacillus cereus ATCC 11778
[14] = tested on: Staphylococcus epidermidis ATCC 12228
[15] = tested on: Listeria monocytogenes 10403s
[16] = tested on: Staphylococcus aureus ATCC 25923
Acinetobacter baumannii = tested on: Acinetobacter baumannii
[17] = tested on: Shigella sonnei ATCC 11060
Vibrio cholerae O1 Inaba = tested on: Vibrio cholerae O1 Inaba
[18] = tested on: Salmonella enterica subsp. enterica serovar Typhimurium ATCC 13311
Escherichia coli O157:H7 = tested on: Escherichia coli O157:H7
[19] = tested on: Pseudomonas aeruginosa ATCC 27853
[20] = tested on: Escherichia coli ATCC 25922

C[C@H](N)C(=O)N[C@@H](CC(=O)O)C(=O)N[C@@H](C)C(=O)N[C@@H](CC(=O)O)C(=O)N[C@@H](CC(=O)O)C(=O)N[C@@H](CC(=O)O)C(=O)N[C@@H](CC(=O)O)C(=O)N[C@@H](CC(=O)O)C(=O)N[C@@H](CCCCN)C(=O)O [ADADDDDDK]
MIC [1]: ≥ 230 µM
MIC [2]: ≥ 900 µM
MIC (Candida krusei ATCC 6258): ≥ 5110 µM
MIC [3]: ≥ 1500 µM
MIC [4]: 1800 µM (≈ 1760 µg/mL)
MIC [5]: 1800 µM (≈ 1760 µg/mL)
MIC [6]: ≥ 850 µM
MIC [7]: ≥ 1500 µM

CC[C@H](C)[C@H](NC(=O)[C@@H](N)CO)C(=O)NCC(=O)N[C@@H](CO)C(=O)N[C@@H](C)C(=O)N[C@@H](Cc1ccccc1)C(=O)N[C@@H](CCCCN)C(=O)N[C@@H](CCCCN)C(=O)N[C@@H](C)C(=O)N[C@@H](C)C(=O)N[C@@H](Cc1cnc[nH]1)C(=O)N[C@H](C(=O)NCC(=O)N[C@@H](CCCCN)C(=O)N[C@@H](Cc1cnc[nH]1)C(=O)N[C@H](C(=O)NCC(=O)N[C@@H](CCCCN)C(=O)N[C@@H](C)C(=O)N[C@@H](C)C(=O)N[C@@H](CC(C)C)C(=O)N[C@H](C(=O)N[C@@H](Cc1cnc[nH]1)C(=O)N[C@@H](Cc1ccc(O)cc1)C(=O)N[C@@H](CC(C)C)C(=O)N[C@@H](CC(N)=O)C(=O)O)[C@@H](C)O)C(C)C)C(C)C [SIGSAFKKAAHVGKHVGKAALTHYLN]
MIC [8]: 23.7 µM (≈ 64 µg/mL)
MIC [9]: 23.7 µM (≈ 64 µg/mL)
MIC [10]: 23.7 µM (≈ 64 µg/mL)
MIC (Aeromonas salmonicida): 2.96 µM (≈ 8 µg/mL)
MIC [11]: 0.739 µM (≈ 2 µg/mL)
MIC [12]: 23.7 µM (≈ 64 µg/mL)
MIC (Vibrio anguillarum): 23.7 µM (≈ 64 µg/mL)

CC[C@H](C)[C@H](NC(=O)[C@H](CCCN=C(N)N)NC(=O)[C@H](CCCCN)NC(=O)[C@H](C)NC(=O)[C@@H](NC(=O)[C@@H](N)CCCCN)[C@@H](C)CC)C(=O)N[C@@H](Cc1c[nH]c2ccccc12)C(=O)N[C@@H](CCCCN)C(=O)N[C@H](C(=O)N[C@@H](CC(C)C)C(=O)N[C@@H](CCCN=C(N)N)C(=O)N[C@@H](CCCN=C(N)N)C(=O)N[C@@H](CCCN=C(N)N)C(=O)N[C@@H](CC(C)C)C(=O)N[C@@H](Cc1ccccc1)C(N)=O)[C@@H](C)CC [KIAKRIWKILRRRLF]
MIC [13]: 1.96 µM (≈ 3.91 µg/mL)
MIC [14]: 1.96 µM (≈ 3.91 µg/mL)
MIC [15]: 0.976 µM (≈ 1.95 µg/mL)
MIC [16]: 3.91 µM (≈ 7.81 µg/mL)
MIC (Acinetobacter baumannii): 1.96 µM (≈ 3.91 µg/mL)
MIC [17]: 1.96 µM (≈ 3.91 µg/mL)
MIC (Vibrio cholerae O1 Inaba): 1.96 µM (≈ 3.91 µg/mL)
MIC [18]: 0.976 µM (≈ 1.95 µg/mL)
MIC (Escherichia coli O157:H7): 7.82 µM (≈ 15.6 µg/mL)
MIC [19]: 3.91 µM (≈ 7.81 µg/mL)
MIC [20]: 7.82 µM (≈ 15.6 µg/mL)
MIC [5]: 15.6 µM (≈ 31.2 µg/mL)

— DBAASP
